What all share (assay type): functional
Experiment [1] concerns Acanthocheilonema viteae. As to the kind of experiment: Effect of compound on glucose uptake in Acanthocheilonema viteae at 10 uM concentration (p>0.05).
The test system of experiment [2] is Acanthocheilonema viteae. As to the kind of experiment: Effect of compound on lactate produced in Acanthocheilonema viteae at 10 uM concentration (p>0.05).
The test system of experiment [3] is Acanthocheilonema viteae. As to the kind of experiment: Effect of compound on ATP content in Acanthocheilonema viteae at 10 uM concentration (p>0.05).
Experiment [4] has as its system Mastomys coucha. The experiment in a line: Tested for in vivo antifilarial activity against Acanthocheilonema viteae macrofilariae infection in Mastomys coucha at 50 mg/kgx 5 days after ip administration, expressed as % reduction in parasite load. As to conditions: dose 50 mg/kg; route intraperitoneal.
In experiment [5] the test system is Mastomys coucha. As to the kind of experiment: Tested for in vivo antifilarial activity against A. viteae microfilariae infection in Mastomys coucha at 50 mg/kgx 5 days after ip administration, expressed as % reduction in parasite load. As to conditions: dose 50 mg/kg; route intraperitoneal.
In experiment [6] the test system is Acanthocheilonema viteae. As to the kind of experiment: Effect of compound on glucose uptake in Acanthocheilonema viteae at 10 uM concentration (p<0.05).
Experiment [7] relates to Acanthocheilonema viteae. As to the kind of experiment: Effect of compound on lactate produced in Acanthocheilonema viteae at 10 uM concentration (p<0.05).
In experiment [8] the test system is Acanthocheilonema viteae. As to the kind of experiment: Effect of compound on ATP content in Acanthocheilonema viteae at 10 uM concentration (p<0.005).
Experiment [9] concerns Mastomys coucha. As to the kind of experiment: Tested for in vivo antifilarial activity against Acanthocheilonema viteae microfilariae infection in Mastomys coucha at 50 mg/kgx 5 days after ip administration, expressed as % reduction in parasite load. As to conditions: dose 50 mg/kg; route intraperitoneal.
Experiment [10] has as its system Acanthocheilonema viteae. The experiment in a line: Effect of compound on glucose uptake in Acanthocheilonema viteae at 10 uM concentration(p<0.005).
Experiment [11] has as its system Acanthocheilonema viteae. As to the kind of experiment: Effect of compound on lactate produced in Acanthocheilonema viteae at 10 uM concentration(p<0.005).
In experiment [12] the test system is Acanthocheilonema viteae. The experiment in a line: Effect of compound on lactate produced in Acanthocheilonema viteae at 10 uM concentration(p>0.05).
The test system of experiment [13] is Mastomys coucha. The experiment in a line: Tested for in vivo antifilarial activity against Litomosoides carinii macrofilariae infection in Mastomys coucha at 350 mg/kgx 5 days after ip administration, expressed as % reduction in parasite load. As to conditions: dose 350 mg/kg; route intraperitoneal.
Experiment [14] concerns Mastomys coucha. As to the kind of experiment: Tested for in vivo antifilarial activity against Litomosoides carinii macrofilariae infection in Mastomys coucha at 6 mg/kgx 5 days after ip administration, expressed as % reduction in parasite load. As to conditions: dose 6 mg/kg; route intraperitoneal.
Experiment [15] concerns Mastomys coucha. The experiment in a line: Tested for in vivo antifilarial activity against Litomosoides carinii microfilariae infection in Mastomys coucha at 350 mg/kgx 5 days after ip administration, expressed as % reduction in parasite load. As to conditions: dose 350 mg/kg; route intraperitoneal.
The test system of experiment [16] is Mastomys coucha. As to the kind of experiment: Tested for in vivo antifilarial activity against Litomosoides carinii microfilariae infection in Mastomys coucha at 6 mg/kgx 5 days after ip administration, expressed as % reduction in parasite load. As to conditions: dose 6 mg/kg; route intraperitoneal.
Experiment [17] has as its system Acanthocheilonema viteae. The experiment in a line: Effect of compound on glucose uptake in Acanthocheilonema viteae at 10 uM concentration (p<0.005).
In experiment [18] the test system is Acanthocheilonema viteae. The experiment in a line: Effect of compound on lactate produced in Acanthocheilonema viteae at 10 uM concentration (p<0.005).
The test system of experiment [19] is Mastomys coucha. As to the kind of experiment: Tested for in vivo antifilarial activity against Litomosoides carinii macrofilariae infection in Mastomys coucha at 30 mg/kgx 5 days after ip administration, expressed as % reduction in parasite load with 30% sterilization of female worms. As to conditions: dose 30 mg/kg; route intraperitoneal.
Experiment [20] relates to Mastomys coucha. The experiment in a line: Tested for in vivo antifilarial activity against Litomosoides carinii microfilariae infection in Mastomys coucha at 30 mg/kgx 5 days after ip administration, expressed as % reduction in parasite load with 30% sterilization of female worms. As to conditions: dose 30 mg/kg; route intraperitoneal.

Regarding `N#CC(C#N)=CNc1ccccc1`, the Glucose uptake in experiment [1] is 189 nM/h (mg of worm). For the same compound, in experiment [2], the Lactate produced is 443 nM/h (mg of worm). Moreover, the ATP content in experiment [3] is reported as 53.5 pM (mg of protein)-1. For the same compound, the Reduction was found to be 0% in [4] and 47% in [5].

For `N#CC(C#N)=CN1CCN(C=C(C#N)C#N)CC1`, the Glucose uptake in experiment [6] is 327 nM/h (mg of worm). In addition, the Lactate produced in experiment [7] is 258 nM/h (mg of worm). For the same compound, the ATP content in experiment [8] was 25.7 pM (mg of protein)-1. Further, the Reduction in [4] was 81%; in experiment [9] it was 0%.

Consider `N#CC(C#N)=CNc1ccc(F)cc1`, for which the Glucose uptake in experiment [10] was 56 nM/h (mg of worm). For the same compound, in experiment [11], the Lactate produced was 222 nM/h (mg of worm). The ATP content in experiment [8] is given as 16.9 pM (mg of protein)-1. In addition, the Reduction in experiment [4] was 0%; in experiment [9], 91%.

Consider `N#CC(C#N)=CN(CCO)CCO`, for which the Glucose uptake in experiment [1] was 204 nM/h (mg of worm). Also, the Lactate produced in [2] was 405 nM/h (mg of worm). Also, in experiment [3], the ATP content is on record as 49.3 pM (mg of protein)-1. The figures for the Reduction in experiment [4] and in experiment [9] were 0% and 76%, respectively.

In the case of `CCN(CC)C(=O)N1CCN(C)CC1.O=C(O)CC(O)(CC(=O)O)C(=O)O` [DIETHYLCARBAMAZINE CITRATE], in experiment [1], the Glucose uptake is 256 nM/h (mg of worm). The Lactate produced in experiment [12] was 461 nM/h (mg of worm). In addition, in experiment [3], the ATP content was 55.6 pM (mg of protein)-1. The Reduction is listed as 0% in experiment [13], 0% in experiment [14], 90% in experiment [15] and 98% in experiment [16].

Consider `N#CC(C#N)=CNCCO`, for which the Glucose uptake in experiment [6] is 164 nM/h (mg of worm). Besides, in [2], the Lactate produced was 343 nM/h (mg of worm). For the same compound, in experiment [3], the ATP content is on record as 47.8 pM (mg of protein)-1. Moreover, the Reduction in [4] was 0%; in [9] it was 82%.

Regarding `N#CC(C#N)=CN1CCN(c2ccccn2)CC1`, the Glucose uptake in experiment [17] is 105 nM/h (mg of worm). Further, the Lactate produced in experiment [18] is 157 nM/h (mg of worm). Further, the ATP content in experiment [8] is given as 37.1 pM (mg of protein)-1. In addition, the Reduction in experiment [19] and in experiment [20] was 60% each time.

The values are drawn from ChEMBL document CHEMBL1151023, “1,1-Dicyano-2-substituted ethylenes: A new class of glucose uptake inhibitors in antifilarial chemotherapy” (1997).
